# Where “and” joins values, the source holds several entries; their conditions need not be identical. Equal entries are not always repeated.
# System: K24384-001-R-PDC complex spheroid viability
# Assay: Anticancer human tumor K24384-001-R-PDC patient-derived pancreatic adenocarcinoma cell line growth inhibition
# Conditions: for viability, T/C: stronger effect = lower value
# From the text: Multicellular complex tumor spheroid response to LSD1 Inhibitor Iadademstat in combination with a variety of drugs and investigational agents in selected tumor cell lines
# The current study was undertaken to assess response to LSD1 inhibitors in combination with standard-of-care drugs and investigational agents in solid tumor complex spheroid models as well as in the K-562 leukemia. Complex spheroids include a stromal component modeled by human endothelial cells (HUVEC) and fibroblasts modeled by human mesenchymal stem cells (MSCs). The concentration ranges selected for each drug and investigational agent were based upon clinically achievable concentrations if the clinical Cmax of the agent was known.
# Compounds. The drugs and investigational agents used in this study are listed on Table 1. All of the agents used, including staurosporine (NSC755774) and gemcitabine (NSC613327), were obtained from the Developmental Therapeutics Program, NCI. FDA-approved anticancer drugs are available from the NCI at http://dtp.nci.nih.gov/branches/dscb/oncology_drugset_explanation.html. Drugs and investigational agents were >95% pure by proton nuclear magnetic resonance (NMR) and liquid chromatography/mass spectrometry (LC/MS). Stock solutions were prepared at 400x in DMSO, stored at -70 degrees C, and diluted in fresh medium prior to their use. The final concentration of DMSO in cell culture wells never exceeded 0.25% (v/v). The FDA-approved anticancer drug set is available from the Developmental Therapeutics Program at https://dtp.cancer.gov/organization/dscb/obtaining/available_plates.htm. All drugs and investigational agents were tested over a range starting from a high concentration at or near the clinical Cmax and decreasing in half-log increments. If the clinical Cmax for an agent had not been determined, the highest concentration tested was 10 microM.
# Cell Lines. The patient-derived cancer cell (PDC) lines: 292921-168-R-J2-PDC, K24384-001-R-PDC, and 521955-158-R2-J5-PDC pancreatic carcinomas, 556581-035-R-J1 ovarian carcinoma, 324938-238-R-J1-PDC, 855422-203-R-J1-PDC and 883617-216-R-J1-PDC urothelial bladder carcinomas, 743489-274-T-PDC renal cell carcinoma, 138582-R-J1 Merkel cell tumor, K60290-347-R-J1 and K57222-313-R-J1-PDC glioblastomas, 653999-131-R-J2-PDC, LG0703-F948-PDC, and 349418-098-R-PDC non-small cell lung carcinomas, 885512-296-R-J2-PDC, 171881-019-R-J1-PDC breast carcinomas and 186277-243-T-J2-PDC and 233499-124-R-J2-PDC colon carcinomas were obtained from the NCI Patient-Derived Models Repository (PDMR, https://pdmr.cancer.gov). The established cell lines NCI/ADR-RES (RRID:CVCL_14520 and OVCAR-5 (RRID:CVCL_1628) ovarian carcinomas, 786-O (RRID:CVCL_1051) and A498 (RRID:CVCL_A498) renal cell carcinoma, NCI-H211 (ATCC, cat. CRL-5824; RRID:CVCL_1529), NCI-H196 (ATCC, cat. CRL-5823, RRID:CVCL_1509), SW 1271 (ATCC, cat. CRL-2177, RRID:CVCL_1716) and NCI-H1876 (ATCC, cat. CRL-5902, RRID:CVCL_1503) small cell lung carcinomas, MDA-MB-231 (RRID:CVCL_0062) and MDA-MB-468 (RRID:CVCL_0419)breast carcinomas (10-12). Pooled donor human umbilical vein endothelial cells (HUVEC, Lonza, cat. CC-2519) and human mesenchymal stem cells (hMSC, Lonza, cat. PT-2501) were purchased from Lonza (Walkersville, MD).
# Cell Culture. All cells were maintained in an incubator at 37 degrees C and 5% CO2 with 95% humidity. The PDC lines were cultured according to standard operating procedures established by the NCI PDMR (https://pdmr.cancer.gov). Briefly all PDCs were thawed and cultured in Matrigel-coated flasks prepared with a working solution of 1X Ham's F-12 nutrient mix, without supplementation (Invitrogen, Waltham, MA, cat. 11765054), 100 U/mL penicillin-streptomycin (Invitrogen, cat. 15140122), and 2.5% Matrigel (Corning Inc., Corning, NY, cat. 354248) for the first three passages. […]
# 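Note: spheroids exposed to agents for seven days before luminescence viability reading.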
# 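Throughout, for viability, T/C: 100% = DMSO vehicle control viability.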
smiles,measurement,setting,value
O=C(C=Cn1cnc(-c2cc(C(F)(F)F)cc(C(F)(F)F)c2)n1)NNc1cnccn1 + NC1CCC(NC2CC2c2ccccc2)CC1,IC50,"curve of first compound, second compound 0.1 µM",29.8 nM
same,IC50,"curve of first compound, second compound 0.316 µM",47.3 nM
same,IC50,"curve of first compound, second compound 1 µM",31.4 nM
same,IC50,"curve of first compound, second compound 3.16 µM",35.1 nM
same,IC50,"curve of first compound, second compound 10 µM",28.9 nM
same,"viability, T/C","second compound 0.1 µM, first compound 0.00316 µM",72.7%
same,"viability, T/C","second compound 0.1 µM, first compound 0.01 µM",62.3%
same,"viability, T/C","second compound 0.1 µM, first compound 0.0316 µM",49.8%
same,"viability, T/C","second compound 0.1 µM, first compound 0.1 µM",36.2%
same,"viability, T/C","second compound 0.1 µM, first compound 0.316 µM",30.7%
same,"viability, T/C","second compound 0.1 µM, first compound 1 µM",23.9%
same,"viability, T/C","second compound 0.316 µM, first compound 0.00316 µM",75%
same,"viability, T/C","second compound 0.316 µM, first compound 0.01 µM",69.8%
same,"viability, T/C","second compound 0.316 µM, first compound 0.0316 µM",57.9%
same,"viability, T/C","second compound 0.316 µM, first compound 0.1 µM",34.6%
same,"viability, T/C","second compound 0.316 µM, first compound 0.316 µM",34%
same,"viability, T/C","second compound 0.316 µM, first compound 1 µM",21%
same,"viability, T/C","second compound 1 µM, first compound 0.00316 µM",67%
same,"viability, T/C","second compound 1 µM, first compound 0.01 µM",65.1%
same,"viability, T/C","second compound 1 µM, first compound 0.0316 µM",49.8%
same,"viability, T/C","second compound 1 µM, first compound 0.1 µM",31.3%
same,"viability, T/C","second compound 1 µM, first compound 0.316 µM",30.3%
same,"viability, T/C","second compound 1 µM, first compound 1 µM",24.3%
same,"viability, T/C","second compound 3.16 µM, first compound 0.00316 µM",64.9%
same,"viability, T/C","second compound 3.16 µM, first compound 0.01 µM",61.2%
same,"viability, T/C","second compound 3.16 µM, first compound 0.0316 µM",53%
same,"viability, T/C","second compound 3.16 µM, first compound 0.1 µM",31.8%
same,"viability, T/C","second compound 3.16 µM, first compound 0.316 µM",30.3%
same,"viability, T/C","second compound 3.16 µM, first compound 1 µM",20.5%
same,"viability, T/C","second compound 10 µM, first compound 0.00316 µM",72.7%
same,"viability, T/C","second compound 10 µM, first compound 0.01 µM",70.5%
same,"viability, T/C","second compound 10 µM, first compound 0.0316 µM",47.2%
same,"viability, T/C","second compound 10 µM, first compound 0.1 µM",31.5%
same,"viability, T/C","second compound 10 µM, first compound 0.316 µM",30.8%
same,"viability, T/C","second compound 10 µM, first compound 1 µM",21.6%
NS(=O)(=O)OCC1CC(n2ccc3c(NC4CCc5ccccc54)ncnc32)CC1O (centres undefined),"viability, T/C",compound 0.00949 µM,98.5% and 116%
same,"viability, T/C",compound 0.03 µM,123% and 143%
same,"viability, T/C",compound 0.0949 µM,109% and 126%
same,"viability, T/C",compound 0.3 µM,52.2% and 53.9%
same,"viability, T/C",compound 0.949 µM,34.3% and 34.6%
same,"viability, T/C",compound 3 µM,19.9% and 22.4%
same,IC50,curve of compound,338 nM and 362 nM
CC1(C)CCC(CN2CCN(c3ccc(C(=O)NS(=O)(=O)c4ccc(NCC5CCOCC5)c([N+](=O)[O-])c4)c(Oc4cnc5[nH]ccc5c4)c3)CC2)=C(c2ccc(Cl)cc2)C1,"viability, T/C",compound 0.0316 µM,95.9% and 81.9%
same,"viability, T/C",compound 0.1 µM,97.3% and 90.8%
same,"viability, T/C",compound 0.316 µM,96.5% and 92.7%
same,"viability, T/C",compound 1 µM,106% and 78.1%
same,"viability, T/C",compound 3.16 µM,63.5% and 67.6%
same,"viability, T/C",compound 10 µM,0.81% and 1.22%
same,IC50,curve of compound,4050 nM and 4230 nM

# Source: PubChem BioAssay AID1918949 (Molecular Pharmacology Branch, DTP, NCI, 2023)
